Results taken from publication PMC10005301, “Prediction of the n-Octanol/Water Partition Coefficients of Basic Compounds Using Multi-Parameter QSRR Models Based on IS-RPLC Retention Behavior in a Wide pH Range” (Molecules, 2023).
Read-outs that look alike come from different tables or passages of the source.

Experiments:
[1] = ref database module of ACD/Labs software; cited from earlier work
[2] = IS-RPLC retention on silica-based C18 column, logkw by linear solvent strength model; type: physicochemical
Experimental: (§1) The retention behavior of the 42 basic compounds (Table 1) were investigated at different ratios of methanol (φ = 0.7–0.1, the interval was 0.1 or 0.05 based on the retention of the investigated solutes). The logk values were plotted versus φ for each solute at pH 7.0, pH 8.0, pH 9.0, and pH 10.0. […] The logD values of the model compounds and verification compounds calculated using Equation (S3) based on the logP and pH values are also listed in Table 1.
The column temperature was set at 30 °C. Methanol and 20 mmol/L ammonium phosphate buffer (pH = 7.0, 8.0, 9.0, 10.0) was used as the mobile phase to perform isocratic elution. The injection volume was 10 µL and the detection wavelength for each eluted compound was set at its optimum absorption wavelength.
(§2) At each pH, the retention time (tR) of every analyte was determined for at least four different volume fractions (φ) of methanol. All the tR values of the solutes were obtained by averaging the results of at least three independent injections. The tR value was corrected using dual-point retention time correction (DP-RTC). For a detailed description of the process, refer to our previous work. For the different hydrophobicities of the studied compounds, benzene, toluene, and benzyl alcohol were used as anchor compounds in the DP-RTC method. The dead time t0 was determined using uracil. For each solute, the logarithm of k was plotted against φ, and logkw was obtained using the Equation (S1). The logD values of the model compounds were calculated using Equation (S3), and the logD–logkw models were established with Equation (S4). The statistical analysis for the regression model was accomplished using Origin 9.4. […]
(§3) Where, k is the capacity factor, φ is the volume fraction of organic modifier in the mobile phase, and S is the constant obtained by linear regression in the equations. […]
The Eqs. (S1) and (S2) are the basis for the determination of logP by revered- phase liquid chromatography (RPLC) method. For dissociative solutes, it has been confirmed by many studies that the logD calibrated from logP has a better linear correlation with logkw than logP. […]

[3] = Description: as §1, §2, §3
and logkw, which is usually called Collander equation [25 ]. lo g lo g wPm k n= + (S2)
Where, m and n are constants obtained by linear regression.
The Eqs. (S1) and (S2) are the basis for the determination of logP by revered- phase liquid chromatography (RPLC) method. For dissociative solutes, it has been confirmed by many studies that the logD calibrated from logP has a better linear correlation with logkw than logP.
For basic compounds, the logD value can be calibrated from Eq. (S3), and the Collander equation can be rewritten into Eq. (S4). log log( )D − −+ −+= + ++P […]
lo g ' lo g 'Dm k n= +w (S4)
Where, pKa1, pKa2 , … p Kan are the dissociation constants of basic compounds of corresponding acids in the mobile phase, pH is the pH value of mobile phase, m′ and n′ are fitting parameters. Han et al. pointed out that although mobile phase pH and pKa of solutes will change along with the varied organic modifier fraction, the difference between a couple of relevant pH and pKa is a constant. Therefore, the used pH and pKa in this paper were both the values obtained at 100% aqueous phase. […]

[4] = n-octanol/water; ref database module of ACD/Labs software; cited from earlier work
[5] = parameters: method as in UFZ-LSER database; conditions: hydrogen bonding parameter B; ref UFZ-LSER database; cited from earlier work
[6] = pH 7.0, methanol/20 mmol/L ammonium phosphate buffer, Welch Xtimate C18, 30 °C, 100% aqueous extrapolation
[7] = pH 8.0, methanol/20 mmol/L ammonium phosphate buffer, Welch Xtimate C18, 30 °C, 100% aqueous extrapolation
[8] = pH 9.0, methanol/20 mmol/L ammonium phosphate buffer, Welch Xtimate C18, 30 °C, 100% aqueous extrapolation
[9] = pH 10.0, methanol/20 mmol/L ammonium phosphate buffer, Welch Xtimate C18, 30 °C, 100% aqueous extrapolation
[10] = pH 7.0, calculated with literature logP, pKa and pH, Equation (S3)
[11] = pH 8.0, calculated with literature logP, pKa and pH, Equation (S3)
[12] = pH 9.0, calculated with literature logP, pKa and pH, Equation (S3)
[13] = pH 10.0, calculated with literature logP, pKa and pH, Equation (S3)

SMILES	pKa1 [1]	logkw-pH 7.0 ([2]; pH 7)	logkw-pH 8.0 ([2]; pH 8)	logkw-pH 9.0 ([2]; pH 9)	logkw-pH 10.0 ([2]; pH 10)	logDpH 7.0 ([3]; pH 7)	logDpH 8.0 ([3]; pH 8)	logDpH 9.0 ([3]; pH 9)	logDpH 10.0 ([3]; pH 10)	logP [4]	B [5]	logkw-pH 7.0 [2, 6]	logkw-pH 8.0 [2, 7]	logkw-pH 9.0 [2, 8]	logkw-pH 10.0 [2, 9]	logDpH 7.0 [3, 10]	logDpH 8.0 [3, 11]	logDpH 9.0 [3, 12]	logDpH 10.0 [3, 13]
Cc1ccc(N)c(C)c1 [2,4-Dimethylaniline]	4.70	1.92	1.98	2.00	2.04	1.68	1.68	1.68	1.68	1.68	0.95	–	–	–	–	–	–	–	–
Cc1ccnc(C)c1 [2,4-Dimethylpyridine]	6.58	–	–	–	–	–	–	–	–	1.65	0.63	1.76	1.85	1.88	1.96	1.51	1.63	1.65	1.65
Cc1cccc(C)n1 [2,6-Dimethylpyridine]	6.65	–	–	–	–	1.52	1.66	1.68	1.68	1.68	0.61	1.68	1.76	1.78	1.81	–	–	–	–
Cc1ccnc(N)c1 [2-Amino-4-methylpyridine]	7.38	–	–	–	–	–	–	–	–	0.89	0.95	1.00	1.16	1.28	1.32	0.36	0.80	0.88	0.89
COc1ccccc1N [2-Methoxyaniline]	4.53	1.38	1.41	1.42	1.49	0.95	0.95	0.95	0.95	0.95	0.99	–	–	–	–	–	–	–	–
CC(C)c1ccc(N)cc1 [4-Isopropylaniline]	4.85	–	–	–	–	–	–	–	–	2.23	0.92	2.42	2.57	2.59	2.65	2.23	2.23	2.23	2.23
COc1ccc(N)cc1 [4-Methoxyaniline]	5.36	1.05	0.99	1.07	1.11	0.79	–	0.80	0.80	0.80	1.05	–	–	–	–	–	0.80	–	–
Cc1ccc(N)cc1 [4-Methylaniline]	5.08	1.50	1.53	1.54	1.58	1.40	1.41	1.41	1.41	1.41	0.94	–	–	–	–	–	–	–	–
Cc1ccncc1 [4-Methylpyridine]	5.99	–	–	–	–	1.29	1.33	1.33	1.33	1.33	0.63	1.40	1.41	1.44	1.46	–	–	–	–
c1ccc(-c2ccncc2)cc1 [4-Phenylpyridine]	5.45	2.66	2.81	2.84	2.80	2.58	2.59	2.59	2.59	2.59	1.38	–	–	–	–	–	–	–	–
CCN(CC)c1ccccc1 [N, N-Diethylaniline]	6.57	3.20	3.44	3.47	3.54	3.17	3.29	3.31	3.31	3.31	0.95	–	–	–	–	–	–	–	–
